From PMC6364417, “Kinase inhibitor library screening identifies synergistic drug combinations effective in sensitive and resistant melanoma cells” (Journal of Experimental & Clinical Cancer Research : CR, 2019)

Columns and labels:
Assay in all cases: Kinase inhibitor library screening, PrestoBlue cell viability, 1 or 10 μM, 72 h
501Mel cells (parental) = conditions: 72 h; for cell viability (kinase inhibitor library screening): 501Mel Parental
Procedure, shortened: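 Normalised to untreated controls, viability percentages came from PrestoBlue measured on a microplate reader following 72 h incubation with drug. Each line was assayed at least twice.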

[1] = system: 501Mel-GP cells (Dabrafenib-resistant); conditions: 72 h; for cell viability (kinase inhibitor library screening): 501Mel GP
[2] = system: 501Mel-XP cells (Vemurafenib-resistant); conditions: 72 h; for cell viability (kinase inhibitor library screening): 501Mel XP
A375 cells (parental) = conditions: for cell viability (kinase inhibitor library screening): A375 Parental, 72 h
[3] = system: A375-GP cells (Dabrafenib-resistant); conditions: for cell viability (kinase inhibitor library screening): A375 GP, 72 h
[4] = system: A375-XP cells (Vemurafenib-resistant); conditions: for cell viability (kinase inhibitor library screening): A375 XP, 72 h
IGR37 cells (parental) = conditions: for cell viability (kinase inhibitor library screening): IGR37 Parental, 72 h
[5] = system: IGR37-GP cells (Dabrafenib-resistant); conditions: for cell viability (kinase inhibitor library screening): IGR37 GP, 72 h
[6] = system: IGR37-XP cells (Vemurafenib-resistant); conditions: for cell viability (kinase inhibitor library screening): IGR37 XP, 72 h

`O=c1cc(-c2cccc3c2Sc2ccccc2S3)oc(N2CCOCC2)c1` [KU-55933] was tested, and the “cell viability (kinase inhibitor library screening)” value (501Mel cells (parental); 10μΜ) was 90.2%, the “cell viability (kinase inhibitor library screening)” value ([1]; 1μΜ) was 98.9% and the “cell viability (kinase inhibitor library screening)” value ([1]; 10μΜ) was 76.6%. For the same molecule, the “cell viability (kinase inhibitor library screening)” value ([2]; 1μΜ) was 87.7%, the “cell viability (kinase inhibitor library screening)” value ([2]; 10μΜ) was 65.9% and the “cell viability (kinase inhibitor library screening)” value (A375 cells (parental); 10μΜ) was 90.0%. The “cell viability (kinase inhibitor library screening)” value (A375 cells (parental); 1μΜ) was 105.8%, the “cell viability (kinase inhibitor library screening)” value ([3]; 1μΜ) was 92.9% and the “cell viability (kinase inhibitor library screening)” value ([3]; 10μΜ) was 89.1%. For the same molecule, the “cell viability (kinase inhibitor library screening)” value ([4]; 1μΜ) was 104.1%, the “cell viability (kinase inhibitor library screening)” value ([4]; 10μΜ) was 92.4% and the “cell viability (kinase inhibitor library screening)” value (IGR37 cells (parental); 1μΜ) was 113.8%. The “cell viability (kinase inhibitor library screening)” value (IGR37 cells (parental); 10μΜ) was 80.4%, the “cell viability (kinase inhibitor library screening)” value ([5]; 1μΜ) was 98.2% and the “cell viability (kinase inhibitor library screening)” value ([5]; 10μΜ) was 67.8%. For the same molecule, the “cell viability (kinase inhibitor library screening)” value ([6]; 1μΜ) was 105.2% and the “cell viability (kinase inhibitor library screening)” value ([6]; 10μΜ) was 34.9%.
`C[C@@H]1CN(CC(=O)Nc2ccc3c(c2)Cc2cccc(-c4cc(=O)cc(N5CCOCC5)o4)c2S3)C[C@H](C)O1` [KU-60019] was tested, and the “cell viability (kinase inhibitor library screening)” value (501Mel cells (parental); 1μΜ) was 90.0%, the “cell viability (kinase inhibitor library screening)” value (501Mel cells (parental); 10μΜ) was 71.5% and the “cell viability (kinase inhibitor library screening)” value ([1]; 1μΜ) was 103.1%. The “cell viability (kinase inhibitor library screening)” value ([1]; 10μΜ) was 54.1%, the “cell viability (kinase inhibitor library screening)” value ([2]; 1μΜ) was 91.4% and the “cell viability (kinase inhibitor library screening)” value ([2]; 10μΜ) was 36.5%. For the same molecule, the “cell viability (kinase inhibitor library screening)” value (A375 cells (parental); 10μΜ) was 78.4%, the “cell viability (kinase inhibitor library screening)” value ([3]; 1μΜ) was 100.5% and the “cell viability (kinase inhibitor library screening)” value ([3]; 10μΜ) was 68.6%. For the same molecule, the “cell viability (kinase inhibitor library screening)” value ([4]; 10μΜ) was 74.4%, the “cell viability (kinase inhibitor library screening)” value (IGR37 cells (parental); 10μΜ) was 97.6% and the “cell viability (kinase inhibitor library screening)” value ([5]; 1μΜ) was 92.9%. The “cell viability (kinase inhibitor library screening)” value ([6]; 10μΜ) was 34.1%.
With `O=C(c1ccc(/C=C/c2n[nH]c3ccccc23)cc1)N1CCNCC1` [KW 2449] the viability at 1 µM (501Mel cells (parental); Homo sapiens, read-out: cell viability, 501Mel Parental, 1μΜ) was 97.3%, the viability at 10 µM (501Mel cells (parental); Homo sapiens, read-out: cell viability, 501Mel Parental, 10μΜ) was 57.7% and the viability at 1 µM ([1]; Homo sapiens, read-out: cell viability, 501Mel GP, 1μΜ) was 103%. For the same molecule, the viability at 10 µM ([1]; Homo sapiens, read-out: cell viability, 501Mel GP, 10μΜ) was 66.3%, the viability at 1 µM ([2]; Homo sapiens, read-out: cell viability, 501Mel XP, 1μΜ) was 96.9% and the viability at 10 µM ([2]; Homo sapiens, read-out: cell viability, 501Mel XP, 10μΜ) was 58%. The viability at 1 µM (A375 cells (parental); Homo sapiens, A-375, 72 h, read-out: cell viability, A375 Parental, 1μΜ) was 87.5%, the viability at 10 µM (A375 cells (parental); Homo sapiens, A-375, 72 h, read-out: cell viability, A375 Parental, 10μΜ) was 30.6% and the viability at 1 µM ([3]; Homo sapiens, A-375, 72 h, read-out: cell viability, A375 GP, 1μΜ) was 93.7%. For the same molecule, the viability at 10 µM ([3]; Homo sapiens, A-375, 72 h, read-out: cell viability, A375 GP, 10μΜ) was 28%, the viability at 1 µM ([4]; Homo sapiens, A-375, 72 h, read-out: cell viability, A375 XP, 1μΜ) was 94.8% and the viability at 10 µM ([4]; Homo sapiens, A-375, 72 h, read-out: cell viability, A375 XP, 10μΜ) was 40.9%. The viability at 1 µM (IGR37 cells (parental); Homo sapiens, IGR-37, 72 h, read-out: cell viability, IGR37 Parental, 1μΜ) was 99.6%, the viability at 10 µM (IGR37 cells (parental); Homo sapiens, IGR-37, 72 h, read-out: cell viability, IGR37 Parental, 10μΜ) was 71.9% and the viability at 1 µM ([5]; Homo sapiens, IGR-37, 72 h, read-out: cell viability, IGR37 GP, 1μΜ) was 96.4%. The viability at 10 µM ([5]; Homo sapiens, IGR-37, 72 h, read-out: cell viability, IGR37 GP, 10μΜ) was 45.2%, the viability at 1 µM ([6]; Homo sapiens, IGR-37, 72 h, read-out: cell viability, IGR37 XP, 1μΜ) was 104% and the viability at 10 µM ([6]; Homo sapiens, IGR-37, 72 h, read-out: cell viability, IGR37 XP, 10μΜ) was 18%.
